Reference: patent publication US9487516B2, “Antibacterial oxadiazolone derivatives” (priority 2013, dated 2016)
≈ marks a conversion by molar mass, not a printed value.

What was measured:
Test in all cases: Bacterial growth minimal inhibitory concentration (microdilution, cation-adjusted Mueller-Hinton Broth)
Type in all cases: cell-based
[1] = test system: Staphylococcus aureus A798; conditions: multiply-resistant strain (in particular quinolone-resistant), read-out: MIC for S. aureus A798
Experimental: (§1) Minimal Inhibitory Concentrations (MICs; mg/L) were determined in cation-adjusted MuellerHinton Broth by a microdilution method following the description given in “Methods for Dilution Antimicrobial Susceptibility Tests for Bacteria that Grow Aerobically”, Approved standard, 7th ed., Clinical and Laboratory Standards Institute (CLSI) Document M7-A7, Wayne, Pa., USA, 2006.
(§2) All Example compounds were tested against several Gram positive and Gram negative bacteria. […] Staphylococcus aureus A798, Enterococcus faecium A949 and Acinetobacter baumanii T6474 are multiply-resistant strains (in particular quinolone-resistant), while Moraxella catarrhalis A894 is a quinolone-sensitive strain and Staphylococcus aureus ATCC29213 is a methicillin-sensitive and quinolone-sensitive strain.

[2] = test system: Enterococcus faecium A949; conditions: multiply-resistant strain (in particular quinolone-resistant), read-out: MIC for E. faecium A949
Experimental: as §1, §2

[3] = test system: Moraxella catarrhalis A894; conditions: quinolone-sensitive strain
Experimental: as §1, §2

[4] = test system: Staphylococcus aureus ATCC29213; conditions: methicillin-sensitive and quinolone-sensitive strain, read-out: MIC for S. aureus ATCC29213
Experimental: as §1, §2

[5] = test system: Acinetobacter baumanii T6474; conditions: Acinetobacter baumannii, multiply-resistant strain (in particular quinolone-resistant)
Experimental: as §1, §2

SMILES | MIC [1] [µg/mL] | MIC [2] [µg/mL] | MIC [3] [µg/mL] | MIC [4] [µg/mL] | MIC [5] [µg/mL]
O=C1COc2ccc(-n3nc(CCCN[C@@H]4Cn5c(=O)cnc6ccc(F)c4c65)oc3=O)cc2N1 [Example 10, (S)-7-fluoro-6-{3-[5-oxo-4-(3-oxo-3,4-dihydro-2H-benzo[1,4]oxazin-6-yl)-4,5-dihydro-[1,3,4]oxadiazol-2-yl]-propylamino}-5,6-dihydro-pyrrolo[1,2,3-de]quinoxalin-3-one] | 0.063 (≈ 0.132 µM) | 0.5 (≈ 1.05 µM) | ≤ 0.016 | 0.031 (≈ 0.0648 µM) | 0.25 (≈ 0.523 µM)
N#Cc1ccc2ccc(=O)n3c2c1[C@H](NCCCc1nn(-c2ccc4c(n2)NC(=O)CO4)c(=O)o1)C3 [Example 41, (S)-4-oxo-1-{3-[5-oxo-4-(3-oxo-3,4-dihydro-2H-pyrido[3,2-b][1,4]oxazin-6-yl)-4,5-dihydro-[1,3,4]oxadiazol-2-yl]-propylamino}-1,2-dihydro-4H-pyrrolo[3,2,1-ij]quinoline-9-carbonitrile] | 0.125 (≈ 0.257 µM) | 0.5 (≈ 1.03 µM) | 0.063 (≈ 0.13 µM) | 0.063 (≈ 0.13 µM) | 0.125 (≈ 0.257 µM)
O=C1COc2ccc(-n3nc(CCCN[C@H]4Cn5c(=O)ccc6ncc(F)c4c65)oc3=O)nc2N1 [Example 38, (R)-3-fluoro-4-{3-[5-oxo-4-(3-oxo-3,4-dihydro-2H-pyrido[3,2-b][1,4]oxazin-6-yl)-4,5-dihydro-[1,3,4]oxadiazol-2-yl]-propylamino}-4,5-dihydro-pyrrolo[3,2,1-de][1,5]naphthyridin-7-one] | 0.5 (≈ 1.04 µM) | 4 (≈ 8.34 µM) | 0.5 (≈ 1.04 µM) | 0.5 (≈ 1.04 µM) | 2 (≈ 4.17 µM)
CCSc1ccc(-n2nc(CCCN[C@H]3Cn4c(=O)cnc5ccc(F)c3c54)oc2=O)cc1 [Example 5, (R)-6-{3-[4-(4-ethylsulfanyl-phenyl)-5-oxo-4,5-dihydro-[1,3,4]oxadiazol-2-yl]-propylamino}-7-fluoro-5,6-dihydro-pyrrolo[1,2,3-de]quinoxalin-3-one] | 0.063 (≈ 0.135 µM) | 0.5 (≈ 1.07 µM) | 0.25 (≈ 0.535 µM) | 0.031 (≈ 0.0663 µM) | 4 (≈ 8.56 µM)
O=C1CSc2ccc(-n3nc(CCCN[C@@H]4Cn5c(=O)ccc6ccc(F)c4c65)oc3=O)cc2N1 [Example 15, (S)-9-fluoro-1-{3-[5-oxo-4-(3-oxo-3,4-dihydro-2H-benzo[1,4]-thiazin-6-yl)-4,5-dihydro-[1,3,4]oxadiazol-2-yl]-propylamino}-1,2-dihydro-pyrrolo[3,2,1-ij]quinolin-4-one] | ≤ 0.016 | 0.063 (≈ 0.128 µM) | ≤ 0.016 | ≤ 0.016 | 0.125 (≈ 0.253 µM)
O=C1COc2ccc(-n3nc(CCCN[C@@H]4Cn5c(=O)ccc6ccc(F)c4c65)oc3=O)nc2N1 [Example 8, (S)-9-fluoro-1-{3-[5-oxo-4-(3-oxo-3,4-dihydro-2H-pyrido[3,2-b][1,4]oxazin-6-yl)-4,5-dihydro-[1,3,4]oxadiazol-2-yl]-propylamino}-1,2-dihydro-pyrrolo[3,2,1-ij]quinolin-4-one] | 0.25 (≈ 0.523 µM) | 0.5 (≈ 1.05 µM) | 0.125 (≈ 0.261 µM) | 0.125 (≈ 0.261 µM) | 0.5 (≈ 1.05 µM)
CCOc1ccc(-n2nc(CCCN[C@H]3Cn4c(=O)ccc5ccc(F)c3c54)oc2=O)cc1 [Example 29, (R)-1-{3-[4-(4-ethoxy-phenyl)-5-oxo-4,5-dihydro-[1,3,4]oxadiazol-2-yl]-propylamino}-9-fluoro-1,2-dihydro-pyrrolo[3,2,1-ij]quinolin-4-one] | 4 (≈ 8.88 µM) | > 8 | 8 (≈ 17.8 µM) | 2 (≈ 4.44 µM) | 4 (≈ 8.88 µM)
CCCc1ccc(-n2nc(CCCN[C@@H]3Cn4c(=O)cnc5ccc(F)c3c54)oc2=O)cc1 [Example 27, (S)-7-fluoro-6-{3-[5-oxo-4-(4-propyl-phenyl)-4,5-dihydro-[1,3,4]oxadiazol-2-yl]-propylamino}-5,6-dihydro-pyrrolo[1,2,3-de]quinoxalin-3-one] | 2 (≈ 4.45 µM) | 2 (≈ 4.45 µM) | 4 (≈ 8.9 µM) | 0.5 (≈ 1.11 µM) | 4 (≈ 8.9 µM)
